These results are taken from ChEMBL document CHEMBL4325834, “De Novo Molecular Design of a Novel Octapeptide That Inhibits In Vivo Melanogenesis and Has Great Transdermal Ability” (J Med Chem, 2018).

In general, IC50 refers to the concentration that inhibits the measured activity by half.

Where a SMILES comes first, the peptide text is derived from it.

Data set [1] can be described thus: Antioxidant activity assessed as DPPH free radical scavenging activity at 80 uM after 30 mins relative to control. It is filed as functional.
The target of the next data set is T1, Tyrosinase (Agaricus bisporus, UniProt O42713).
T1 sequence (O42713 whole entry): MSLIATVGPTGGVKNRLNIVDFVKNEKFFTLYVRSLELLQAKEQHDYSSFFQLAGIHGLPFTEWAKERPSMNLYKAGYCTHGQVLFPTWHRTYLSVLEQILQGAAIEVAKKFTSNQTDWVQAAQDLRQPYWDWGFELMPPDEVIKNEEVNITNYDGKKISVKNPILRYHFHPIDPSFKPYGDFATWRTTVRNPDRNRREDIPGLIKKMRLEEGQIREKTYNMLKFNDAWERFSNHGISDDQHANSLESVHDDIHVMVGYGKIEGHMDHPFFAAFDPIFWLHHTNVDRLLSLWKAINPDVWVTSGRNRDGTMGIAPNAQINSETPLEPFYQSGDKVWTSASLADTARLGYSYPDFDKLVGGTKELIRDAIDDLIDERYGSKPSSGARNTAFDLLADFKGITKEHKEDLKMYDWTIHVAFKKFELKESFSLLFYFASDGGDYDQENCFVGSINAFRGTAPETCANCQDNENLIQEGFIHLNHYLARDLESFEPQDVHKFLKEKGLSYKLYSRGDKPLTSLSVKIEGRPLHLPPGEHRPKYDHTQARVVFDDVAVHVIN
The data set is described as follows: Inhibition of mushroom tyrosinase using L-dopa as substrate assessed as reduction in dopachrome production after 20 mins by spectrophotometry.

A further data set has as its system HaCaT. The data set is described as follows: Cytotoxicity against human HaCaT cells up to 150 uM by MTT assay relative to control. Type of data set: cell-based.
Data set [2] is described as follows: Antioxidant activity assessed as ABTS radical scavenging activity at 80 uM after 10 mins relative to control. Type of data set: functional.
Another data set deals with B16. Description: Cytotoxicity against mouse B16 cells up to 150 uM by MTT assay relative to control. It is filed as cell-based. On the technique in general: Tetrazolium assays rely on reduction of a dye to a coloured formazan, in cell work by metabolically active cells.
A short description of data set [3]: Reducing power of the compound assessed as reducing Fe3+ power at 80 uM using K3Fe(CN)6 in pH 6.6 phosphate buffer relative to control.
A short description of data set [4]: Hemolytic activity against human erythrocytes assessed as amount of hemoglobin released from lysed cells up to 150 uM relative to control. Type of data set: ADME, cell-based, Erythrocyte. The settings on record: read-out: Activity.

`CC[C@H](C)[C@H](NC(=O)[C@H](CS)NC(=O)[C@@H](NC(=O)[C@@H](NC(=O)[C@H](CCCNC(=N)N)NC(=O)[C@H](C)NC(=O)[C@@H](NC(=O)[C@H](CC(N)=O)NC(=O)[C@@H](NC(=O)[C@H](CCCNC(=N)N)NC(=O)[C@H](Cc1ccccc1)NC(=O)[C@H](CCCNC(=N)N)NC(=O)[C@@H](NC(=O)[C@@H](N)CS)C(C)C)[C@@H](C)O)[C@@H](C)O)[C@@H](C)O)C(C)C)C(=O)N[C@@H](C)C(=O)N1CCC[C@H]1C(=O)O` (H-CVRFRTNTARTVCIAP-OH): the Activity was 43% in data set [1]; 15% in the data set with HaCaT; 36% in data set [2]; 13% in the data set with B16; 0.18 in data set [3]. In addition, at Tyrosinase, the IC50 worked out at 166 µM. The hemolysis in data set [4] stood at 5%.
Turning to `CC(C)[C@H](N)C(=O)N[C@H](C(=O)N[C@@H](CCCCN)C(=O)N[C@@H](CS)C(=O)N[C@@H](CO)C(=O)N[C@@H](Cc1ccccc1)C(=O)N[C@@H](CCCNC(=N)N)C(=O)N1CCC[C@H]1C(=O)NCC(=O)N[C@@H](CO)C(=O)N1CCC[C@H]1C(=O)N[C@@H](C)C(=O)N1CCC[C@H]1C(=O)N[C@@H](CCCNC(=N)N)C(=O)N[C@@H](CS)C(=O)N[C@@H](CCCCN)C(=O)O)C(C)C` (H-VVKCSFRPGSPAPRCK-OH), the Activity in data set [1] stood at 56%; with HaCaT, 10%; in data set [2], 25%; in the data set on B16, 13%; in data set [3], 0.18. Moreover, the IC50 at Tyrosinase came to 199 µM. In data set [4], the hemolysis stood at 5%.
Consider `CC[C@H](C)[C@H](NC(=O)[C@H](CS)NC(=O)[C@H](C)NC(=O)[C@@H](NC(=O)[C@H](CCCNC(=N)N)NC(=O)[C@H](C)NC(=O)[C@@H](NC(=O)[C@H](CC(N)=O)NC(=O)[C@@H](NC(=O)[C@H](CCSC)NC(=O)[C@H](Cc1c[nH]c2ccccc12)NC(=O)[C@H](Cc1cnc[nH]1)NC(=O)[C@@H](NC(=O)[C@@H](N)CS)C(C)C)[C@@H](C)O)[C@@H](C)O)[C@@H](C)O)C(=O)N[C@@H](C)C(=O)N1CCC[C@H]1C(=O)O` (H-CVHWMTNTARTACIAP-OH), for which the Activity in data set [1] was determined as 21%; in data set [2] it was 82%; in data set [3], 0.34. Also, the IC50 on Tyrosinase turned out to be 176 µM.
As for `C[C@H](NC(=O)[C@H](CO)NC(=O)[C@H](CS)NC(=O)[C@H](CO)NC(=O)[C@@H](NC(=O)[C@H](CCCNC(=N)N)NC(=O)[C@@H](N)Cc1ccccc1)[C@@H](C)O)C(=O)N[C@@H](CS)C(=O)O` (H-FRTSCSAC-OH), the Activity in data set [1] was found to be 73%; in the data set on HaCaT it was 7%; in data set [2], 62%; in the data set with B16 it was 8%; in data set [3], 0.23. Moreover, the IC50 at Tyrosinase is 78 µM. Moreover, in data set [4], the hemolysis came out at 2%.
With `CC(C)[C@H](NC(=O)[C@H](CCCNC(=N)N)NC(=O)[C@H](Cc1ccccc1)NC(=O)[C@H](CS)NC(=O)[C@H](CCCNC(=N)N)NC(=O)[C@H](CO)NC(=O)[C@@H](N)[C@@H](C)O)C(=O)N[C@@H](CS)C(=O)O` (H-TSRCFRVC-OH), the Activity in data set [1] is 99%; with HaCaT, 9%; in data set [2] it was 50%; in the data set with B16 it was 11%; in data set [3], 0.24. The IC50 on Tyrosinase was 106 µM. In data set [4], the hemolysis worked out at 1%.
For the compound `CC[C@H](C)[C@H](NC(=O)[C@H](C)NC(=O)[C@@H]1CCCN1C(=O)[C@@H](NC(=O)[C@@H](N)Cc1ccccc1)C(C)C)C(=O)N[C@@H](CC(C)C)C(=O)N[C@@H](CS)C(=O)N[C@@H](CO)C(=O)N[C@H](C(=O)N[C@@H](CC(C)C)C(=O)N[C@@H](CCCCN)C(=O)N[C@H](C(=O)N[C@@H](CS)C(=O)O)[C@@H](C)O)[C@@H](C)CC` (H-FVPAILCSILKTC-OH), the Activity in data set [1] came to 74%; in the data set on HaCaT it was 11%; in data set [2], 48%; in the data set with B16, 12%; in data set [3] it was 0.23. Moreover, the IC50 at Tyrosinase came out at 147 µM. Further, the hemolysis in data set [4] came to 4%.
Regarding `CC(C)[C@H](NC(=O)[C@H](CO)NC(=O)[C@H](CCCNC(=N)N)NC(=O)[C@H](CS)NC(=O)[C@H](CO)NC(=O)[C@@H](NC(=O)[C@H](CCCNC(=N)N)NC(=O)[C@H](Cc1ccccc1)NC(=O)[C@@H](N)Cc1ccccc1)[C@@H](C)O)C(=O)N[C@@H](CS)C(=O)O` (H-FFRTSCRSVC-OH), the Activity in data set [1] was determined as 90%; in the data set on HaCaT, 13%; in data set [2], 58%; in the data set on B16, 9%; in data set [3] it was 0.28. Also, on Tyrosinase, the IC50 was 127 µM. The hemolysis in data set [4] was found to be 7%.
On to `CC(C)[C@H](NC(=O)[C@H](CCCNC(=N)N)NC(=O)[C@H](CS)NC(=O)[C@H](CO)NC(=O)[C@H](CCCNC(=N)N)NC(=O)[C@H](Cc1ccccc1)NC(=O)[C@@H](N)Cc1ccccc1)C(=O)N[C@@H](CS)C(=O)O` (H-FFRSCRVC-OH), for which the Activity was determined as 95% in data set [1]; 5% in the data set with HaCaT; 66% in data set [2]; 5% in the data set on B16; 0.19 in data set [3]. Also, at Tyrosinase, the IC50 amounted to 90 µM. Besides, in data set [4], the hemolysis stood at 2%.
With `CC[C@H](C)[C@H](NC(=O)[C@H](CS)NC(=O)[C@H](CCCNC(=N)N)NC(=O)[C@H](CO)NC(=O)[C@@H](N)[C@@H](C)O)C(=O)N[C@@H](Cc1ccccc1)C(=O)N[C@@H](Cc1ccc(O)cc1)C(=O)N[C@@H](CCCNC(=N)N)C(=O)N[C@@H](CCCNC(=N)N)C(=O)N[C@@H](CS)C(=O)N[C@H](C(=O)N[C@@H](CS)C(=O)N[C@@H](CO)C(=O)O)C(C)C` (H-TSRCIFYRRCVCS-OH), the Activity in data set [1] is 60%; in the data set on HaCaT it was 29%; in data set [2], 61%; in the data set on B16 it was 27%; in data set [3], 0.24. Besides, at Tyrosinase, the IC50 came to 128 µM. Besides, the hemolysis in data set [4] worked out at 21%.
For the compound `C[C@@H](O)[C@H](NC(=O)[C@H](CO)NC(=O)[C@H](Cc1ccccc1)NC(=O)[C@@H](N)Cc1ccccc1)C(=O)N[C@@H](CO)C(=O)N[C@@H](CS)C(=O)N[C@@H](CCCNC(=N)N)C(=O)N[C@@H](CO)C(=O)NCC(=O)N[C@@H](CS)C(=O)O` (H-FFSTSCRSGC-OH), the results for the Activity in data set [1], in data set [2] and in data set [3] were 45%, 80% and 0.21, respectively. The IC50 on Tyrosinase stood at 187 µM.
For the compound H-TRAFRCVS-OH, the Activity in data set [1] was 80%; in the data set with HaCaT, 11%; in data set [2], 56%; in the data set on B16, 10%; in data set [3], 0.25. At Tyrosinase, the IC50 was determined as 220 µM. Moreover, in data set [4], the hemolysis was found to be 1%.
In the case of `CC[C@H](C)[C@H](NC(=O)[C@H](CS)NC(=O)[C@H](CCCNC(=N)N)NC(=O)[C@H](CO)NC(=O)[C@@H](N)[C@@H](C)O)C(=O)N[C@@H](Cc1ccccc1)C(=O)N[C@@H](Cc1ccc(O)cc1)C(=O)N[C@@H](CCCNC(=N)N)C(=O)N[C@@H](CCCNC(=N)N)C(=O)N[C@@H](CCCCN)C(=O)N[C@@H](CCCCN)C(=O)N[C@@H](CS)C(=O)N[C@@H](CO)C(=O)O` (H-TSRCIFYRRKKCS-OH), the values for the Activity in data set [1], in data set [2] and in data set [3] were 55%, 85% and 0.21, respectively. Moreover, the IC50 on Tyrosinase was 153 µM.
